From patent US20070275935A1, “Estratriene Derivatives” (priority 2003, published 2007) come the findings set out here.

The subject of experiment [1] is human breast tumour cell line, MCF7. Nature of the experiment: Proliferation of MCF7 cells in response to 5% FCS or EGF. Conditions: for effect on proliferation of MCF7 cells, in words (FIG. 3): 5% FCS or EGF 300 pM. Format: cell-based. The protocol: (§1) The effects of 4NO were evaluated in a number of non-smooth muscle cell types including the type II airway epithelial cell line, A549 (ATCC accession number ATCC CCL-185 Lung carcinoma human) (FIG. 2); the human breast tumour cell line, MCF7, (ATTC accession number ATCC HTB-22 breast adenocarcinoma, human) which expresses the estrogen receptor (FIG. 3); and in bovine aortic endothelial cells (BAEC) (FIG. 4).
(§2) The effects of test compounds were examined on proliferation of A549 cells in response to 5% fetal calf serum (FCS). Analogues were pre-incubated with A549 cells for 30 min before the addition of FCS. The incubation continued for 48 h before cell enumeration. Data are expressed as a percentage of the cell number in vehicle treated wells and are presented as the mean and standard error of the mean. Similarly the effects of 2MEO and 4NO on proliferation of MCF7 in response to 5% FCS or epidermal growth factor (EGF, 300 pM) were examined, as were the effects of 2MEO and 4NO on proliferation of BAEC in response to 5% FCS. The incubation parameters were the same as described above and results are presented as the mean and standard error of the mean.
This assay was also used to evaluate the ability of other compounds to inhibit the proliferation of non-smooth muscle cells MCF7 and A549 (described above) in response to 5% FCS. The results of this assay are presented in Table 4 (columns G and H respectively). The potency of the compounds was considerably less in inhibiting proliferation of these cell lines than it was for HASM. These observations support the contention that there are cell type-specific targets for the actions of these compounds. Such assays may also be adopted to examine the effect of other disclosed compounds on these cells or on other non-smooth muscle cells of interest.

The test system of experiment [2] is bovine aortic endothelial cells (BAEC). Nature of the experiment: Proliferation of bovine aortic endothelial cells in response to 5% FCS. Format: cell-based. As to the method: as §1, §2
For experiment [3], the target named is colchicine binding site on tubulin. Nature of the experiment: Colchicine displacement assay on partially purified tubulin. Conditions: partially purified lamb brain tubulin, 1 μM 3H colchicine.
Method: For the binding assays, a partial purification of tubulin was derived from the polymerization-depolymerization method of Williams and Lee (Williams et al., 1982). Three lamb brains (approximately 150 g total) were obtained approximately fifteen minutes after slaughter. Batches of 100g of brain were homogenized in 50 mL cold PM4M buffer (100 mM piperazine-N,N′-bis[2-ethane sulfonic acid] (PIPES), 1 mM MgSO4, 2 mM ethylene glycol tetra-acetate (EGTA), 2 mM DTT, 4 M glycerol, pH 6.9) using a domestic blender (Power Blender, Ronson) on the highest setting for 30 s. The crude homogenate was centrifuged for 15 mins (9000 rpm (6500×g), 4° C.) and the precipitate (cell debris, extracellular matrix and crude nuclear fraction) discarded. The 6500×g supernatant was then centrifuged for 75 mins (28 000 rpm (96 000×g), 4° C.) and the precipitate (consisting largely of cell membranes) was discarded.
The GTP (guanosine triphosphate) concentration of the 96 000×g supernatant was adjusted to 1 mM by the addition of an appropriate amount of a freshly prepared solution of 50 mM GTP in distilled water. […]
Reaction mixtures were incubated for 30 mins at 37° C. in a water bath, followed by cold stabilization on ice for 1 to 1.5 hours. […] 5 ml “Emulsifier Safe” scintillation fluid (Packard) was added to each tube, and the samples counted in a Packard 1600TR liquid scintillation analyzer.
The next experiment concerns HASM cells. Nature of the experiment: PDGF(BB)-induced migration of HASM cells (modified Boyden chamber). Format: cell-based, human. Conditions: PDGF(BB) 1 ng/ml, 5 h, 30 min pre-treatment. As to the method:
Costar transwell culture inserts (Corning Inc, USA) with 6.5 mm diameter and […] were coated overnight at 4° C. with 0.1% gelatin (Bovine skin; Sigma, USA) prior to the commencement of the assay (modified Boyden chamber assay). HASM cells were deprived of serum for 24 h prior to the commencement of the assay. Cells were added to the upper side of the transwell inserts with or without 30 min pre-treatment with one of the test compounds. Platelet-derived growth factor(BB) (1 ng/ml) was added to the lower compartment to stimulate cell migration and the chambers and cells left for 5 h. After this period the membranes with the adherent cells were washed with PBS, and fixed for 2 min with DiffQuick (Lab Aids, Aus) fixative and then stained with DiffQuick. Membranes were then washed twice in PBS, peeled off the inserts and placed onto slides. Membranes were visualised by light microscopy, and the number of migrated cells in five fields (×400) were counted in triplicate.
The numbers of HASM appearing on the underside of the porous membrane was counted and the responses were expressed as a percentage of the number of cells migrating in response to PDGF in the absence of pre-treatment.

Another experiment concerns Airway fibroblasts. Nature of the experiment: bFGF-induced proliferation of airway fibroblasts from airway biopsies. Format: cell-based. The following applies: 3 μM. The text has this:
Airway fibroblasts were also obtained by explant culture from airway biopsies.

Experiment [4] concerns bleomycin-induced fibrosis in C57BL6 female mice. The experiment can be described thus: Bleomycin model of pulmonary fibrosis in mice. The format is in vivo. Conditions: 4NO 50 mg/kg/day i.p. As to the method:
The activity of CP-DM-2-11-7 was investigated using a bleomycin model of pulmonary fibrosis (Underwood et al. 2000). 4NO was administered daily commencing on the day of the bleomycin challenge, 2 hours before the mice received bleomycin. The 4NO (50 mg/kg/day, by intraperitoneal injection) was then administered throughout the 14 day period. The mice also received a daily injection of bromo-deoxyuridine (BrdU) by intraperitoneal injection). The other two groups of mice), control and bleomycin-treated received a daily intraperitoneal injection of the vehicle containing BrdU. The vehicle comprised 10% dimethyl sulphoxide in peanut oil. […]
Body weight was measured throughout the experiment. […] After a 5 minute stabilization period, values of resistance and compliance were recorded and the animal was killed by a lethal dose of pentabarbitone.
Half of each group of animals was then subjected to bronchoalveolar lavage (BAL) to generate BAL fluid (BALF) in which the number of infiltrating cells was counted by haemocytometry. […]
Tissue areas reported in Table 6 were determined by capturing images of the lung section at a 100 times magnification and importing those images into a powerpoint file. […]
A 36 point overlay was then applied to the captured image and the number of grid points that intersect with tissue was determined for each of the 10 selected fields. […]

The test system of the next experiment is NIH3T3 cells. The experiment can be described thus: Thrombin-induced proliferation of NIH3T3 cells. The format is cell-based. The following applies: concentration not given.

In the case of `COc1cc2c(cc1O)CC[C@@H]1[C@@H]2CC[C@]2(C)[C@@H](O)CC[C@@H]12` [2-methoxyestradiol, reference compound], the “effect on proliferation of MCF7 cells, in words (FIG. 3)” value in experiment [1] (concentration not given) was “effective inhibitor”. Further, in experiment [1] (proliferation in response to 5% FCS, pIC50 of 4.00 = inactive), the “MCF7 pIC50” value came to 5.40. The “effect on proliferation of BAEC, in words (FIG. 4)” value in experiment [2] (concentration not given) is listed as “effective inhibitor”. For the same molecule, the “Tubulin affinity (pIC50 ^3H-colchicine displacement)” value in experiment [3] turned out to be 4.8. In the experiment on HASM cells, the “migration in response to PDGF” value was “significantly reduced levels of migration”.

For `COc1cc2c(cc1O)C(=NOCc1ccc([N+](=O)[O-])cc1)C[C@@H]1[C@@H]2CC[C@]2(C)[C@@H](O)CC[C@@H]12` [CP-DM-2-11-7, 2-methoxy-6-(4-nitrobenzyloxy)iminoestradiol], the “reduction of bFGF (300 pM) induced proliferation” value with Airway fibroblasts was 55±20%. The “Proliferation Epithelial” value in experiment [4] (BrdU positive nuclei as percentage of total nuclei, major airway, n = 6, bleomycin alone 4.646 ± 0.8564) is listed as 3.802 ± 0.9053. Besides, in experiment [4] (magnification of 600×, bleomycin alone 1340 ± 287), the “Parenchymal Cell Prolif.” value was 738 ± 185 positive cells/10^6 pixels. Moreover, the “effect on proliferation of MCF7 cells, in words (FIG. 3)” value in experiment [1] (concentrations below 3 μM) is recorded as “no detectable effect”. Besides, the “effect on proliferation of BAEC, in words (FIG. 4)” value in experiment [2] (concentrations below 3 μM) was “no detectable effect”. Further, in experiment [3], the “Tubulin affinity (pIC50 ^3H-colchicine displacement)” value was less than 4.0. Further, the “inhibitory effect on thrombin-induced proliferation” value with NIH3T3 cells was 26±12%. Further, the “migration in response to PDGF” value in the experiment with HASM cells is recorded as “significantly reduced levels of migration”.

On to `COc1cc2c(cc1O)C(=NOCc1ccc([N+](=O)[O-])cc1)C[C@@H]1[C@@H]2CC[C@]2(C)C(=NO)CC[C@@H]12` [CP-DM-3-91, 2-methoxy-6-(4-nitrobenzyloxy)iminoestrone-17-oxime], for which the “reduction of bFGF (300 pM) induced proliferation” value in the experiment with Airway fibroblasts was determined as 50±24%. Also, in the experiment with NIH3T3 cells, the “inhibitory effect on thrombin-induced proliferation” value came out at 68±10%.
